Data taken from patent US20200231562A1, “NOVEL MACROLIDE ANTIBIOTICS” (HELMHOLTZ-ZENTRUM FÜR INFEKTIONSFORSCHUNG GMBH, priority 2014, published 2020).
≈ marks a conversion by molar mass, not a printed value. Like-named read-outs stand apart in the source and are kept apart here.

Legend:
Type in all cases: cell-based
[1] = system: Mycobacterium vaccae IMET 10670; test: Agar diffusion assay; conditions: Mycolicibacterium vaccae, IMET10670; 50 μL of 0.5 mg in 1 mL methanol per 7 mm hole; n.a. = no activity observed; read-out: diameter of inhibition zone
Method: (§1) Antimicrobial activities of the gulmirecins were determined in a primary screen against Bacillus subtilis ATCC 6633, Staphylococcus aureus SG511, Staphylococcus auricularis DSM 20609, Mycobacterium vaccae IMET 10670, Pseudomonas aeruginosa K799/61, Escherichia coli SG458, Sporobolomyces salmonicolor SBUG 549, Candida albicans ATCC14053 and Penicillium notatum JP 36. To this end, holes with 7 mm diameter were aseptically punched in the respective agar medium. Subsequently, the agar plates were inoculated with the test organisms. 0.5 mg of every test compound was dissolved in 1 mL of methanol, and 50 μL of this solution was transferred to a single hole. Ciprofloxacin and amphotericin B served as positive controls. After evaporation of the solvent, the agar plates were incubated depending on the growth conditions of the test organisms. […] The test results are shown in Table 6 below, wherein the given values represent the diameters of the respective inhibition zone in the agar diffusion assay.

[2] = system: Bacillus subtilis ATCC 6633; test: Agar diffusion assay; conditions: ATCC6633, 50 μL of 0.5 mg in 1 mL methanol per 7 mm hole, n.a. = no activity observed, read-out: diameter of inhibition zone
Method: as §1

[3] = system: S. aureus Newman in PMA-differentiated human THP-1 cell line (macrophages); test: Intra-macrophage activity
Text: The PMA-differentiated human THP-1 cell line (macrophages) was used as cellular host for infection with S. aureus Newman at an MOI (multiplicity of infection) of 10. […] Intracellular bacteria were recovered and serial dilutions were streaked out on CASO-Agar for cfu counting. The reference drug rifampicin reduced the number of intracellular bacteria by ca. 4 logs (at 8×MIC).

[4] = system: Staphylococcus aureus Newman; test: MIC by microbroth dilution; conditions: 16 h, 30° C., n.i. = no inhibition up to 67 μg/ml
Method: (§2) Bacterial strains. Bacterial wildtype strains used in susceptibility assays were either part of HZI's strain collection or purchased from the German Collection of Microorgansims and Cell Cultures (Deutsche Sammlung von Mikroorganismen und Zellkulturen, DSMZ).
(§3) Minimum inhibitory concentration (MIC) was determined by microbroth dilution. In brief, overnight cultures of bacteria (EBS medium) were diluted to OD600 0.01. Disciformycin A (1) or B (2) dissolved in DMSO was added directly to the cultures in 96-well plates (Sarstedt, flat bottom) in duplicate and the compound was tested in serial dilution. […] After 16 h incubation at 900 rpm and 30° C. on a microplate shaker (Titramax, Heidolph) absorbance at 600 nm was measured using a microplate reader (POLARstar Omega, BMG Labtech). MIC values were determined by sigmoidal curve fitting.

Bacillus subtilis DSM 10 = test: MIC by microbroth dilution; conditions: Bacillus subtilis, DSM10, 16 h, 30° C., n.i. = no inhibition up to 67 μg/ml, read-out: MIC
Method: as §2, §3

[5] = system: Staphylococcus aureus (MRSA) DSM-11822; test: MIC by microbroth dilution; conditions: microbroth dilution, 16 h, 30° C., n.i. = no inhibition up to 67 μg/ml
Method: as §2, §3

[6] = system: Staphylococcus aureus DSM 346; test: MIC by microbroth dilution; conditions: Staphylococcus aureus, DSM346, 16 h, 30° C., n.i. = no inhibition up to 67 μg/ml, read-out: MIC
Method: as §2, §3

[7] = system: Staphylococcus camosus DSM 20501; test: MIC by microbroth dilution; conditions: 30° C., n.i. = no inhibition up to 67 μg/ml
Method: as §2, §3

[8] = system: Escherichia coli DSM 1116; test: MIC by microbroth dilution; conditions: 16 h, 30° C., n.i. = no inhibition up to 67 μg/ml
Method: as §2, §3

[9] = system: Micrococcus luteus DSM 20030; test: MIC by microbroth dilution; conditions: Micrococcus luteus, DSM20030, 16 h, 30° C., n.i. = no inhibition up to 67 μg/ml, read-out: MIC
Method: as §2, §3

[10] = system: Pseudomonas aeruginosa DSM 50071; test: MIC by microbroth dilution; conditions: 16 h, 30° C., n.i. = no inhibition up to 67 μg/ml
Method: as §2, §3

[11] = system: Nocardioides simplex DSM 20130; test: MIC by microbroth dilution; conditions: Pimelobacter simplex, DSM20130, 16 h, 30° C., n.i. = no inhibition up to 67 μg/ml, read-out: MIC
Method: as §2, §3

[12] = system: Chromobacterium violaceum DSM 30191; test: MIC by microbroth dilution; conditions: 16 h, 30° C., n.i. = no inhibition up to 67 μg/ml
Method: as §2, §3

[13] = system: Paenibacillus polymyxa DSM 36; test: MIC by microbroth dilution; conditions: Paenibacillus polymyxa, DSM36, 16 h, 30° C., n.i. = no inhibition up to 67 μg/ml, read-out: MIC
Method: as §2, §3

[14] = system: Chinese hamster ovary CHO-K1 cells (ACC-110); test: Cytotoxicity (MTT) assay, antiproliferative activity; conditions: Cricetulus griseus, 120 h, CHO-K1, 5 d incubation
Method: (§4) Half maximal inhibitory concentrations (IC50) in μg/ml of disciformycin A (1) and disciformycin B (2) for inhibiting the proliferative activity of human HCT-116 colon carcinoma cells, mouse fibroblast cells L929, and Chinese hamster ovary CHO-K1 cells were determined. Cells were seeded at 6×10^3 cells per well of 96-well plates (Corning CellBind®) in complete medium (180 μl) and directly treated with disciformycin dissolved in DMSO in serial dilution. The compound was tested in duplicate, as well as the internal solvent control. After 5 d incubation, 5 mg/ml MTT in PBS (20 μL) was added per well and it was further incubated for 2 h at 37° C. The medium was then discarded and cells were washed with PBS (100 μl) before adding 2-propanol/10N HCl (250:1, v/v; 100 μl) in order to dissolve formazan granules. The absorbance at 570 nm was measured using a microplate reader (EL808, Bio-Tek Instruments Inc.). The amount of formazan, i.e. relative absorption, is thereby proportional to the number of actively proliferating cells.

[15] = system: Mouse fibroblast cells L929 (ACC-2); test: as above; conditions: 120 h, L929, 5 d incubation
Method: as §4

[16] = system: HCT-116 colon carcinoma cells (ACC-581); test: as above; conditions: Homo sapiens, 120 h, HCT-116, 5 d incubation
Method: as §4

Q: How did the zone of inhibition at 25 µg/hole [1] turn out when `C/C=C(/C)[C@H]1C/C=C(\C)[C@@H](O[C@H]2O[C@H](CO)[C@@H](O)[C@@H]2O)[C@H](OC(=O)CC(C)C)C(=O)C[C@@H](O)[C@H](C)C(=O)O1` [Compound 3, gulmirecin A] was run?
A: Its zone of inhibition at 25 µg/hole is 17 mm.

Q: What about the zone of inhibition at 25 µg/hole [2] of the same compound?
A: The zone of inhibition at 25 µg/hole was 35 mm.

Q: With `C/C=C(/C)[C@H]1C/C=C(\C)[C@@H](O[C@H]2O[C@H](CO)[C@@H](O)[C@@H]2O)[C@H](OC(=O)CC(C)C)C(=O)C/C=C(/C)C(=O)O1` [Compound 1, disciformycin A] as the compound, how does the “reduction of the number of intracellular bacteria” value ([3]; 18 h, MOI 10, cfu counting, tested at 1×, 4× and 8×MIC) read?
A: Its value is 3 logs.

Q: What about the “cytotoxicity towards THP-1 host cells” value ([3]; 18 h treatment of infected macrophages) of the same compound?
A: Its value is “without causing any apparent cytotoxicity”.

Q: And the MIC [4]?
A: Its MIC is 8.0 mg/L (≈ 15.2 µM).

Q: What about the MIC ([4]; Staphylococcus aureus, NEWMAN, read-out: MIC) of the same compound?
A: Its MIC is 8 mg/L (≈ 15.2 µM).

Q: What about the MIC (Bacillus subtilis DSM 10) of the same compound?
A: Its MIC is 4.2 mg/L (≈ 8.01 µM).

Q: And the MIC ([5]; Staphylococcus aureus, read-out: MIC)?
A: The MIC was 4 mg/L (≈ 7.62 µM).

Q: And the MIC [5]?
A: The MIC was 4.0 mg/L (≈ 7.62 µM).

Q: What about the MIC [6] of the same compound?
A: The MIC was 16.6 mg/L (≈ 31.6 µM).

Q: What about the MIC ([7]; 16 h) of the same compound?
A: Its MIC is 7.8 mg/L (≈ 14.9 µM).

Q: What about the MIC ([7]; Staphylococcus, DSM20501, 16 h, read-out: MIC) of the same compound?
A: The MIC was 7.8 mg/L (≈ 14.9 µM).

Q: And the MIC [8]?
A: Its MIC is “n.i”.

Q: And the MIC [9]?
A: The MIC was 67 mg/L (≈ 128 µM).

Q: And the MIC [10]?
A: The MIC was “n.i”.

Q: What about the MIC [11] of the same compound?
A: Its MIC is 33.3 mg/L (≈ 63.5 µM).

Q: And the MIC [12]?
A: Its MIC is “n.i”.

Q: And the MIC [13]?
A: The MIC was 16.6 mg/L (≈ 31.6 µM).

Q: What about the IC50 [14] of the same compound?
A: Its IC50 is 16.6 mg/L (≈ 31.6 µM).

Q: And the IC50 [15]?
A: Its IC50 is 29 mg/L (≈ 55.3 µM).

Q: And the IC50 [16]?
A: Its IC50 is 13 mg/L (≈ 24.8 µM).
